Data reported in ChEMBL document CHEMBL1158584, “Mono-, di-, and triaryl substituted tetrahydropyrans as cyclooxygenase-2 and tumor growth inhibitors. Synthesis and biological evaluation” (J Med Chem, 2010).

Columns and labels:
[1] = target: T1, Prostaglandin G/H synthase 1 (Ovis aries, UniProt P05979); assay: Inhibition of ovine COX1 assessed as inhibition of PGF2a formation after 20 mins by Ellman's method
T1 sequence (P05979 whole entry): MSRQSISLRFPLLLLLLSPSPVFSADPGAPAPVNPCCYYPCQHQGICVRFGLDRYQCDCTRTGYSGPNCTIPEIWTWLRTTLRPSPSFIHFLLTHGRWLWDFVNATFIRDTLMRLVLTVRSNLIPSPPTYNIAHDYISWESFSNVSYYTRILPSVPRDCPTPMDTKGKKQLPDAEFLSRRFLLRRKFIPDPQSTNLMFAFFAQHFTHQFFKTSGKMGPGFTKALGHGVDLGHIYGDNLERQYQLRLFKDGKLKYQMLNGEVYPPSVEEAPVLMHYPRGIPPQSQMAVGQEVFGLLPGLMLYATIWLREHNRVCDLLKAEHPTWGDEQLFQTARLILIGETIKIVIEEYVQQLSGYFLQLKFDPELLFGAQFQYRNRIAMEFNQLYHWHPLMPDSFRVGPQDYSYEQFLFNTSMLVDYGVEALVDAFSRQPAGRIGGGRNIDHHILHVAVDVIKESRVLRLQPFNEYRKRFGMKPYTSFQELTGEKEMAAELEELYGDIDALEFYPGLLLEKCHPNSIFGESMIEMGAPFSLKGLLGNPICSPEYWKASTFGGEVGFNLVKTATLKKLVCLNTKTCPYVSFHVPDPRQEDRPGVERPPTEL

[2] = target: T2, Prostaglandin G/H synthase 1 (Ovis aries) (UniProt P05979); assay: Inhibition of ovine COX1 assessed as inhibition of PGF2a formation at 10 uM after 20 mins by Ellman's method
T2 sequence (whole entry): T1 sequence (P05979 whole entry)

[3] = target: T2, Prostaglandin G/H synthase 1 (Ovis aries); assay: Inhibition of ovine COX1 assessed as inhibition of PGF2a formation at 1 uM after 20 mins by Ellman's method
[4] = target: T2, Prostaglandin G/H synthase 1 (Ovis aries); assay: Inhibition of ovine COX1 assessed as inhibition of PGF2a formation at 100 nM after 20 mins by Ellman's method
[5] = target: T2, Prostaglandin G/H synthase 1 (Ovis aries); assay: Inhibition of ovine COX1 assessed as inhibition of PGF2a formation at 100 uM after 20 mins by Ellman's method
[6] = target: T2, Prostaglandin G/H synthase 1 (Ovis aries); assay: Inhibition of ovine COX1 assessed as inhibition of PGF2a formation at 0.01 uM after 20 mins by Ellman's method
[7] = Growth inhibition of human NCI60 cells after 48 hrs by sulforhodamine B assay; assay type: functional; conditions: NCI60, 48 h

Row | SMILES | IC50 [1] [nM] | inhibition [2] [%] | inhibition [3] [%] | inhibition [4] [%] | inhibition [5] [%] | inhibition [6] [%] | GI50 [7] [nM] | CC50 ([7]; read-out: LC50 (the source's name)) [nM]
1 | N#CSC[C@@H]1C[C@@](O)(c2ccccc2)C[C@H](c2ccc(Br)cc2)O1 (relative stereo) | 209 | 94 | 65 | 48 | – | – | – | –
2 | CCSC[C@@H]1C[C@](O)(c2ccccc2)[C@@H](c2ccccc2)[C@H](c2ccccc2)O1 (relative stereo) | 13900 | 38 | 16 | – | 52 | – | – | –
3 | N#CSC[C@@H]1C[C@](O)(c2ccccc2)[C@@H](c2ccccc2)[C@H](c2ccccc2)O1 (relative stereo) | 64000 | 27 | 24 | – | 50 | – | – | –
4 | CCSC[C@@H]1C[C@@](O)(c2ccccc2)C[C@H](c2ccc(Cl)cc2)O1 (relative stereo) | 413 | 94 | 60 | 45 | – | – | – | –
5 | CCSC[C@@H]1C[C@@](O)(c2ccccc2)C[C@H](c2ccc(Br)cc2)O1 (relative stereo) | 562 | 94 | 58 | 40 | – | – | – | –
6 | N#CSC[C@@H]1C[C@](O)(c2ccccc2)[C@@H](c2ccccc2)[C@H](c2ccc(Br)cc2)O1 (relative stereo) | 13000 | 29 | 28 | – | 50 | – | – | –
7 | N#CSC[C@@H]1C[C@@](O)(c2ccccc2)C[C@H](c2ccccc2)O1 (relative stereo) | 2790 | 94 | 39 | 26 | – | – | – | –
8 | CCSC[C@@H]1C[C@@](O)(c2ccccc2)C[C@H](C)O1 (relative stereo) | 347 | 55 | 51 | 40 | 62 | 32 | – | –
9 | C[C@H]1C[C@](O)(c2ccccc2)C[C@@H](CSC#N)O1 (relative stereo) | 368 | 60 | 55 | 38 | 65 | 32 | – | –
10 | CCSC[C@@H]1C[C@@](O)(c2ccccc2)C[C@H](c2ccccc2)O1 (relative stereo) | 2930 | 94 | 37 | 25 | – | – | – | –
11 | CCSC[C@@H]1C[C@](O)(c2ccccc2)[C@@H](c2ccccc2)[C@H](c2ccc(Br)cc2)O1 (relative stereo) | 23800 | 38 | 41 | – | 60 | – | – | –
12 | Cc1ccc(-c2cc(C(F)(F)F)nn2-c2ccc(S(N)(=O)=O)cc2)cc1 [CELECOXIB] | – | – | – | – | – | – | 17500 | 63300
